The series can be described thus: Stability of polymorphs: slurry of Form 1, Form 2 and Form 3 in ethanol, crystal form examined by powder X-ray diffraction. It is filed as physicochemical. As for the experimental part: Powder X-ray diffraction analysis of solid material was carried out using the Briker D8 powder diffractometer. Samples were mounted in Perspex sample holders and the samples flattened. The sample holder was rotated and X-rays were collected from 4° to 34° 2-theta, with a scan time of 25 to 30 minutes depending on the pattern intensity. Approximately 0.1 g each of Form 1, Form 2 and Form 3 were added to 10 ml of ethanol at 50° C. and 60° C. until there were solids out of solution (a slurry). The temperature was maintained with stirring and the crystal form examined after 2 and 8 days.

Where [1] appears, read: about 0.1 g each of Form 1, Form 2 and Form 3 in 10 ml ethanol, stirred slurry at 50° C. and 60° C.

Regarding `CNC(=O)Nc1ccc(S(=O)(=O)NC(=O)c2ccccc2OC)cc1` [Form 2, N-(2-methoxybenzoyl)-4-[(methylaminocarbonyl)amino]benzenesulfonamide], the “crystal form present in slurry after 8 days” value (about 0.1 g each of Form 1, Form 2 and Form 3 in 10 ml ethanol, stirred slurry at 50° C. and 60° C., 8 days in total) is “complete conversion to Form 2”. The “crystal form present in slurry after 2 days” value under setting [1] is given as “still present”. The “stability relative to the other polymorphs” value (general statement in the description, Form 2 compared with Form 1 and Form 3) is “stable polymorph”.

In the case of `CNC(=O)Nc1ccc(S(=O)(=O)NC(=O)c2ccccc2OC)cc1` [Form 3, N-(2-methoxybenzoyl)-4-[(methylaminocarbonyl)amino]benzenesulfonamide], under setting [1], the “crystal form present in slurry after 2 days” value is “still present”.

As to `CNC(=O)Nc1ccc(S(=O)(=O)NC(=O)c2ccccc2OC)cc1` [Form 1, N-(2-methoxybenzoyl)-4-[(methylaminocarbonyl)amino]benzenesulfonamide], the “crystal form present in slurry after 2 days” value under setting [1] is given as “no evidence of Form 1”.

The values above are taken from patent publication US9475765B2, “Polymorphs of N- (2 -methoxybenzoyl) -4- [ (methylaminocarbonyl) amino] benzenesulfonamide” (Syngenta Limited, priority 2012, dated 2016).
